Paper PMC9143228, “Evaluation of 3-Borono-L-Phenylalanine as a Water-Soluble Boron Neutron Capture Therapy Agent” (Pharmaceutics, 2022)
≈ marks a conversion by molar mass, not a printed value. Values belong to the compound of their own block, whether it stands above or below them.

Columns and labels:
[1] = system: T3M-4 human pancreatic adenocarcinoma cells; experiment: Cellular uptake study, T3M-4; assay type: cell-based; conditions: for Boron uptake, specific (LAT1-specific): difference non-inhibitor minus inhibitor; for Boron uptake, non-inhibitor: no inhibitor, mixed with fructose; for Boron uptake, inhibitor: with 10 µM LAT1 inhibitor JPH203
Description: (§1) B16F10 mouse melanoma cells (RCB2630) and T3M-4 human pancreatic adenocarcinoma cells (RCB1021) were provided by the RIKEN BRC (Ibaraki, Japan). U-87MG human glioblastoma cells were provided by Prof. Magata (Hamamatsu University School of Medicine, Hamamatsu, Japan), and A549 human lung carcinoma cells (CCL-185) were obtained from ATCC (Manassas, VA, USA). Cells were cultured in growth medium RPMI 1640 for B16F10 and T3M-4 and DMEM for A549 and U-87MG, containing 10% fetal bovine serum at 37 °C in a humidified atmosphere of 5% CO2.
(§2) Cells were cultured in six-well plates 2 days before the experiment. After medium removal, cells were washed twice with choline buffer (140 mM choline chloride, 2 mM potassium chloride, 1 mM magnesium chloride, 1 mM calcium chloride, 1 M Tris) and preincubated with 900 µL of choline buffer containing/not containing 10 µM of the LAT1-specific inhibitor JPH203 [32, 33] (Selleck Biotech, Tokyo, Japan) at 37 °C for 5 min. After incubation, 100 µL of 3-BPA or 4-BPA mixed with fructose (0.5 mg/mL, 0.11 w/v% Fru, pH 7.4) was added and incubated at 37 °C for 1, 5, and 30 min. After washing three times with choline buffer, 400 µL of 0.2 M NaOH was added to lyse the cells. After the amount of cell protein was measured using the BCA method (Thermo Fisher Scientific, Tokyo, Japan) and the mixture was ashed with nitric acid, the amount of boron was measured using ICP-MS. The accumulation rate was calculated as % dose/mg protein from the quantified dose of boron in added 3-BPA and 4-BPA, respectively (n = 3).

[2] = system: U-87MG human glioblastoma cells; experiment: Cellular uptake study, U-87MG; assay type: cell-based; conditions: for Boron uptake, specific (LAT1-specific): difference non-inhibitor minus inhibitor; for Boron uptake, non-inhibitor: no inhibitor, mixed with fructose; for Boron uptake, inhibitor: with 10 µM LAT1 inhibitor JPH203
Description: as §1, §2

[3] = set-up: method as in doi:10.1007/978-1-4757-9567-7_10; conditions: cited from earlier work
[4] = cited from earlier work
[5] = system: B16F10 mouse melanoma cells; experiment: Cellular uptake study, B16F10; assay type: cell-based; conditions: for Boron uptake, specific (LAT1-specific): difference non-inhibitor minus inhibitor; for Boron uptake, non-inhibitor: no inhibitor, mixed with fructose; for Boron uptake, inhibitor: with 10 µM LAT1 inhibitor JPH203
Description: as §1, §2

[6] = system: A549 human lung carcinoma cells; experiment: Cellular uptake study, A549; assay type: cell-based; conditions: for Boron uptake, specific (LAT1-specific): difference non-inhibitor minus inhibitor; for Boron uptake, non-inhibitor: no inhibitor, mixed with fructose; for Boron uptake, inhibitor: with 10 µM LAT1 inhibitor JPH203
Description: as §1, §2

[7] = Log p measurement (water/1-octanol, ICP-MS); assay type: physicochemical; conditions: v/v); water:1-octanol 1:1, n = 12
Description: After dissolving 3-BPA or 4-BPA in water (0.2 mg/mL), 1-octanol was added to compose a water:1-octanol (1:1, v/v) mixture. The mixture was shaken for 5 min and then centrifuged at 5000 rpm for 10 min. The amount of boron was measured for each liquid phase using ICP-MS, and log p was calculated from the concentration ratio of each liquid phase. The experiment was repeated twice with n = 6.

[8] = Water solubility (boron in supernatant by ICP-MS); assay type: physicochemical; conditions: for solubility at 24 h: 25 °C, 24 h stirring, n = 6
Description: 3-BPA or 4-BPA (40 mg) were suspended in 200 μL water and stirred at 25 °C for 24 h. After stirring, the solution was centrifuged at 5000 rpm for 10 min, and the amount of boron in the supernatant solution was measured by 8800 triple quadrupole ICP-MS (Agilent, Santa Clara, CA, USA). The experiment was repeated twice with n = 3.

logP [7]: -1.8 ± 0.04
solubility at 24 h ([8]; in water): 0.72 ± 0.13 mg/mL (≈ 3.44 mM)
SMILES: N[C@@H](Cc1ccc(B(O)O)cc1)C(=O)O [4-BPA, 4-borono-L-phenylalanine]
Boron uptake, specific (LAT1-specific) ([1]; T3M-4, 1 min): 0.56 ± 0.11 % dose/mg protein
Boron uptake, non-inhibitor ([1]; T3M-4, 1 min): 0.82 ± 0.11 % dose/mg protein
Boron uptake, inhibitor ([1]; T3M-4, 1 min): 0.26 ± 0.16 % dose/mg protein
Boron uptake, specific (LAT1-specific) ([1]; T3M-4, 5 min): 3.10 ± 0.39 % dose/mg protein
Boron uptake, non-inhibitor ([1]; T3M-4, 5 min): 3.28 ± 0.39 % dose/mg protein
Boron uptake, inhibitor ([1]; T3M-4, 5 min): 0.18 ± 0.02 % dose/mg protein
Boron uptake, specific (LAT1-specific) ([1]; T3M-4, 30 min): 5.19 ± 0.45 % dose/mg protein
Boron uptake, non-inhibitor ([1]; T3M-4, 30 min): 5.40 ± 0.45 % dose/mg protein
Boron uptake, inhibitor ([1]; T3M-4, 30 min): 0.20 ± 0.01 % dose/mg protein
Boron uptake, specific (LAT1-specific) ([2]; 1 min): 0.05 ± 0.02 % dose/mg protein
Boron uptake, non-inhibitor ([2]; 1 min): 0.13 ± 0.02 % dose/mg protein
Boron uptake, inhibitor ([2]; 1 min): 0.08 ± 0.01 % dose/mg protein
Boron uptake, specific (LAT1-specific) ([2]; 5 min): 0.06 ± 0.02 % dose/mg protein
Boron uptake, non-inhibitor ([2]; 5 min): 0.20 ± 0.02 % dose/mg protein
Boron uptake, inhibitor ([2]; 5 min): 0.14 ± 0.02 % dose/mg protein
Boron uptake, specific (LAT1-specific) ([2]; 30 min): 0.31 ± 0.03 % dose/mg protein
Boron uptake, non-inhibitor ([2]; 30 min): 0.48 ± 0.03 % dose/mg protein
Boron uptake, inhibitor ([2]; 30 min): 0.17 ± 0.01 % dose/mg protein
pKa1 [3]: 2.35
pKa2 [3]: 8.45
pKa3 [3]: 9.67
Water solubility under neutral conditions ([4]; neutral conditions, ref Borofalan interview form): 0.6 to 0.7 mg/mL
Boron uptake, specific (LAT1-specific) ([5]; B16F10, 1 min): 0.03 ± 0.01 % dose/mg protein
Boron uptake, non-inhibitor ([5]; B16F10, 1 min): 0.03 ± 0.01 % dose/mg protein
Boron uptake, inhibitor ([5]; B16F10, 1 min): 0.00 ± 0.01 % dose/mg protein
Boron uptake, specific (LAT1-specific) ([5]; B16F10, 5 min): 0.48 ± 0.01 % dose/mg protein
Boron uptake, non-inhibitor ([5]; B16F10, 5 min): 0.62 ± 0.01 % dose/mg protein
Boron uptake, inhibitor ([5]; B16F10, 5 min): 0.14 ± 0.03 % dose/mg protein
Boron uptake, specific (LAT1-specific) ([5]; B16F10, 30 min): 0.56 ± 0.06 % dose/mg protein
Boron uptake, non-inhibitor ([5]; B16F10, 30 min): 0.57 ± 0.06 % dose/mg protein
Boron uptake, inhibitor ([5]; B16F10, 30 min): 0.01 ± 0.01 % dose/mg protein
Boron uptake, specific (LAT1-specific) ([6]; A549, 1 min): 0.13 ± 0.04 % dose/mg protein
Boron uptake, non-inhibitor ([6]; A549, 1 min): 0.14 ± 0.04 % dose/mg protein
Boron uptake, inhibitor ([6]; A549, 1 min): 0.01 ± 0.01 % dose/mg protein
Boron uptake, specific (LAT1-specific) ([6]; A549, 5 min): 0.66 ± 0.08 % dose/mg protein
Boron uptake, non-inhibitor ([6]; A549, 5 min): 0.66 ± 0.08 % dose/mg protein
Boron uptake, inhibitor ([6]; A549, 5 min): 0.00 ± 0.01 % dose/mg protein
Boron uptake, specific (LAT1-specific) ([6]; A549, 30 min): 3.75 ± 0.20 % dose/mg protein
Boron uptake, non-inhibitor ([6]; A549, 30 min): 3.92 ± 0.20 % dose/mg protein
Boron uptake, inhibitor ([6]; A549, 30 min): 0.17 ± 0.09 % dose/mg protein

SMILES: NC(Cc1cccc(O)c1)C(=O)O (racemic) [meta-Tyrosine, DL-meta-tyrosine]
Solubility (g/L) (in water, 25°C, n = 3) ([8]; in water, 25°C, n = 3, Table S8): 9.8 ± 0.1 g/L (≈ 54.1 mM)
Water solubility of DL-meta-tyrosine relative to DL-tyrosine ([8]; times higher than DL-tyrosine): more than 25 times

logP [7]: -1.59
solubility at 24 h ([8]; in water): 125 mg/mL (≈ 598 mM)
Water solubility of 3-BPA relative to 4-BPA ([8]; times higher than 4-BPA): more than 100 times
SMILES: N[C@@H](Cc1cccc(B(O)O)c1)C(=O)O [3-BPA, 3-borono-L-phenylalanine]
Boron uptake, specific (LAT1-specific) ([1]; T3M-4, 1 min): 0.69 ± 0.09 % dose/mg protein
Boron uptake, non-inhibitor ([1]; T3M-4, 1 min): 0.78 ± 0.09 % dose/mg protein
Boron uptake, inhibitor ([1]; T3M-4, 1 min): 0.09 ± 0.08 % dose/mg protein
Boron uptake, specific (LAT1-specific) ([1]; T3M-4, 5 min): 3.55 ± 0.40 % dose/mg protein
Boron uptake, non-inhibitor ([1]; T3M-4, 5 min): 3.55 ± 0.40 % dose/mg protein
Boron uptake, inhibitor ([1]; T3M-4, 5 min): 0.09 ± 0.07 % dose/mg protein
Boron uptake, specific (LAT1-specific) ([1]; T3M-4, 30 min): 5.41 ± 0.63 % dose/mg protein
Boron uptake, non-inhibitor ([1]; T3M-4, 30 min): 5.62 ± 0.63 % dose/mg protein
Boron uptake, inhibitor ([1]; T3M-4, 30 min): 0.21 ± 0.06 % dose/mg protein
Boron uptake, specific (LAT1-specific) ([2]; 1 min): 0.02 ± 0.04 % dose/mg protein
Boron uptake, non-inhibitor ([2]; 1 min): 0.33 ± 0.04 % dose/mg protein
Boron uptake, inhibitor ([2]; 1 min): 0.31 ± 0.05 % dose/mg protein
Boron uptake, specific (LAT1-specific) ([2]; 5 min): 0.15 ± 0.04 % dose/mg protein
Boron uptake, non-inhibitor ([2]; 5 min): 0.28 ± 0.04 % dose/mg protein
Boron uptake, inhibitor ([2]; 5 min): 0.14 ± 0.05 % dose/mg protein
Boron uptake, specific (LAT1-specific) ([2]; 30 min): 0.21 ± 0.05 % dose/mg protein
Boron uptake, non-inhibitor ([2]; 30 min): 0.45 ± 0.05 % dose/mg protein
Boron uptake, inhibitor ([2]; 30 min): 0.24 ± 0.04 % dose/mg protein
pKa1 [3]: 2.26
pKa2 [3]: 8.46
pKa3 [3]: 9.95
Boron uptake, specific (LAT1-specific) ([5]; B16F10, 1 min): 0.03 ± 0.03 % dose/mg protein
Boron uptake, non-inhibitor ([5]; B16F10, 1 min): 0.23 ± 0.03 % dose/mg protein
Boron uptake, inhibitor ([5]; B16F10, 1 min): 0.21 ± 0.06 % dose/mg protein
Boron uptake, specific (LAT1-specific) ([5]; B16F10, 5 min): 0.42 ± 0.11 % dose/mg protein
Boron uptake, non-inhibitor ([5]; B16F10, 5 min): 0.59 ± 0.11 % dose/mg protein
Boron uptake, inhibitor ([5]; B16F10, 5 min): 0.17 ± 0.11 % dose/mg protein
Boron uptake, specific (LAT1-specific) ([5]; B16F10, 30 min): 0.56 ± 0.07 % dose/mg protein
Boron uptake, non-inhibitor ([5]; B16F10, 30 min): 0.80 ± 0.07 % dose/mg protein
Boron uptake, inhibitor ([5]; B16F10, 30 min): 0.24 ± 0.01 % dose/mg protein
Boron uptake, specific (LAT1-specific) ([6]; A549, 1 min): 0.30 ± 0.12 % dose/mg protein
Boron uptake, non-inhibitor ([6]; A549, 1 min): 0.48 ± 0.12 % dose/mg protein
Boron uptake, inhibitor ([6]; A549, 1 min): 0.18 ± 0.03 % dose/mg protein
Boron uptake, specific (LAT1-specific) ([6]; A549, 5 min): 0.94 ± 0.40 % dose/mg protein
Boron uptake, non-inhibitor ([6]; A549, 5 min): 1.22 ± 0.13 % dose/mg protein
Boron uptake, inhibitor ([6]; A549, 5 min): 0.29 ± 0.02 % dose/mg protein
Boron uptake, specific (LAT1-specific) ([6]; A549, 30 min): 3.60 ± 0.24 % dose/mg protein
Boron uptake, non-inhibitor ([6]; A549, 30 min): 4.02 ± 0.24 % dose/mg protein
Boron uptake, inhibitor ([6]; A549, 30 min): 0.42 ± 0.01 % dose/mg protein

solubility ([8]; in water, 25°C, n = 3, Table S8, read-out: Solubility (g/L) (in water, 25°C, n = 3)): 15.3 ± 0.1 g/L (≈ 92.6 mM)
SMILES: N[C@@H](Cc1ccccc1)C(=O)O [phenylalanine]
water solubility [4]: 12.0 mg/mL (≈ 72.6 mM)
